Assay results from patent publication US20250268903A1, “RXFP1 AGONISTS” (BRISTOL-MYERS SQUIBB COMPANY, priority 2021, published 2025).

Columns and labels:
[1] = target: T1, human RXFP1 (Homo sapiens, UniProt Q9HBX9); assay: hRXFP1 HEK293 cAMP assay (HTRF); type: cell-based; details: HEK293 cells stably expressing human RXFP1, 30 min at room temperature
T1 construct: expressed in transfected cells
T1 sequence (Q9HBX9 1-757): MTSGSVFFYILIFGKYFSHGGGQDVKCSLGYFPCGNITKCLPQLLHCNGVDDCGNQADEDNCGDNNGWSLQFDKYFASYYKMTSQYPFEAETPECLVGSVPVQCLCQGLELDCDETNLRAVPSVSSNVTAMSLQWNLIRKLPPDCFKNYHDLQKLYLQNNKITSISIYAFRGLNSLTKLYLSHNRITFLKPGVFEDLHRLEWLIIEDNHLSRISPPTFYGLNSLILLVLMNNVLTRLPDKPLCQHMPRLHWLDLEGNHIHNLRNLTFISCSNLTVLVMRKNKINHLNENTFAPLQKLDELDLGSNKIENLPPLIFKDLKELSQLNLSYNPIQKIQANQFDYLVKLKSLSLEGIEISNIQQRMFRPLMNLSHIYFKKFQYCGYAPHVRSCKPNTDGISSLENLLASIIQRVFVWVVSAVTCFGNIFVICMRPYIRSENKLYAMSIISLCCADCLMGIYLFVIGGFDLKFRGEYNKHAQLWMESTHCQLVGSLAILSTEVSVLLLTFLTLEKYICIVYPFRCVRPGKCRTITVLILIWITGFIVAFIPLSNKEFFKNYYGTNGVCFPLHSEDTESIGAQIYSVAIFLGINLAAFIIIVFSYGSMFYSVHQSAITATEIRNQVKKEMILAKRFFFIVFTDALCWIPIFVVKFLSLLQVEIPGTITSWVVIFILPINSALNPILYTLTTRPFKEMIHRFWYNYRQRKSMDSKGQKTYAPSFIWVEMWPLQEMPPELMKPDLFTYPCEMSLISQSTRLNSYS
Outline: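 HEK293 cells stably expressing human RXFP1 (1500 cells/well) in HBSS/20 mM HEPES/0.05% BSA/0.5 mM IBMX. Compounds were tested at 0.010 nM–50 μM final (2% DMSO) for 30 min at room temperature. cAMP was measured by HTRF and values derived by 4-parameter logistic fit.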

[2] = intravenous (IV) formulation; cited from earlier work

| Compound | EC50 [1] | first-phase pharmacokinetic half-life [2] |
| --- | --- | --- |
| COc1c(F)cc(C2CC3CC(CO)CC3C2)cc1C(=O)N[C@H]1[C@@H](C(=O)Nc2ccc(F)c(C(F)(F)F)c2)[C@H]2CC[C@@H]1/C2=C\C1CCCC1 (stereo partly drawn) [Example 370, (1R,2S,3R,4R,7Z)-7-(cyclopentyl-methylidene)-N-[4-fluoro-3-(trifluoromethyl)phenyl]-3-{3-fluoro-5-[5-(hydroxymethyl)-octahydropentalen-2-yl]-2-methoxybenzamido} bicyclo[2.2.1]heptane-2-carboxamide] | 9.7 nM |  |
| COc1c(F)cc(C(=O)N2CC3(CC(O)C3)C2)cc1C(=O)N[C@H]1[C@@H](C(=O)Nc2ccc(F)c(C(F)(F)F)c2)[C@H]2CC[C@@H]1/C2=C\C1CCCC1 [Example 371, (1R,2S,3R,4R,7Z)-7-(cyclopentyl-methylidene)-N-[4-fluoro-3-(trifluoromethyl)phenyl]-3-(3-fluoro-5-{6-hydroxy-2-azaspiro[3.3]heptane-2-carbonyl}-2-methoxybenzamido) bicyclo[2.2.1]heptane-2-carboxamide] | 2.8 nM |  |
| COc1c(F)cc(C(=O)N2CC3(C2)CC(O)(C(F)(F)F)C3)cc1C(=O)N[C@H]1[C@@H](C(=O)N[C@H](C)C2(C)CC2)[C@H]2CC[C@@H]1/C2=C\C1CC1 [Example 372, (1R,2S,3R,4R,7Z)-7-(cyclopropyl-methylidene)-3-{3-fluoro-5-[6-hydroxy-6-(trifluoromethyl)-2-azaspiro[3.3]heptane-2-carbonyl]-2-methoxybenzamido}-N-[(1R)-1-(1-methylcyclopropyl)ethyl]bicyclo[2.2.1] heptane-2-carboxamide] | 5.9 nM |  |
| COc1c(F)cc(C(=O)NCC2(S(C)(=O)=O)CC2)cc1C(=O)N[C@H]1[C@@H](C(=O)N[C@H](C)C2(C)CC2)[C@H]2CC[C@@H]1/C2=C\c1cnc(C(F)(F)F)s1 [Example 373, 5-fluoro-N1-[(1-methanesulfonyl-cyclopropyl)methyl]-4-methoxy-N3-[(1R,2R,3S,4R,7Z)-3-{[(1R)-1-(1-methylcyclopropyl)ethyl]carbamoyl}-7-{[2-(trifluoromethyl)-1,3-thiazol-5-yl]methylidene}bicyclo[2.2.1]heptan-2-yl]benzene-1,3-dicarboxamide] | 3.6 nM |  |
| COc1c(F)cc(C(=O)NCC2(S(C)(=O)=O)CC2)cc1C(=O)N[C@H]1[C@@H](C(=O)Nc2ccc(F)c(C(F)(F)F)c2)[C@H]2CC[C@@H]1/C2=C\C1CC(F)(F)C1 [Example 374, N3-[(1R,2R,3S,4R,7Z)-7-[(3,3-difluorocyclobutyl)methylidene]-3-{[4-fluoro-3-(trifluoromethyl)phenyl]carbamoyl}bicyclo[2.2.1]heptan-2-yl]-5-fluoro-N1-[(1-methanesulfonyl-cyclopropyl)methyl]-4-methoxybenzene-1,3-dicarboxamide] | 6.9 nM |  |
| COc1cc(F)c(O[C@H]2CC[C@](C)(C(=O)O)CC2)cc1C(=O)N[C@@H]1C2CCC(/C2=C/C2CC2)[C@@H]1C(=O)Nc1ccc(F)c(C(F)(F)F)c1 (stereo partly drawn) [Example 375, (1R,4r)-4-(5-(((1R,2R,3S,4R,Z)-7-(cyclopropyl-methylene)-3-((4-fluoro-3-(trifluoromethyl)phenyl)carbamoyl)bicyclo[2.2.1]heptan-2-yl)carbamoyl)-2-fluoro-4-methoxyphenoxy)-1-methylcyclohexane-1-carboxylic acid] | 1.3 nM |  |
| COc1cc(F)c(O[C@H]2CC[C@H](C(=O)O)CC2)cc1C(=O)N[C@@H]1C2CCC(/C2=C/C2CC2)[C@@H]1C(=O)Nc1ccc(F)c(C(F)(F)F)c1 (stereo partly drawn) [Example 376, (1R,4r)-4-(5-(((1R,2R,3S,4R,Z)-7-(cyclopropyl-methylene)-3-((4-fluoro-3-(trifluoromethyl)phenyl)carbamoyl)bicyclo[2.2.1]heptan-2-yl)carbamoyl)-2-fluoro-4-methoxyphenoxy) cyclohexane-1-carboxylic acid] | 120 nM |  |
| COc1cc(F)c(O[C@H]2CC[C@](C)(C(=O)O)CC2)cc1C(=O)N[C@H]1[C@@H](C(=O)NCC2(C)CCC2)[C@H]2CC[C@@H]1/C2=C\C1CC1 [Example 377, (1R,4r)-4-(5-(((1R,2R,3S,4R,Z)-7-(cyclopropyl-methylene)-3-(((1-methylcyclobutyl)methyl)carbamoyl)bicyclo[2.2.1]heptan-2-yl)carbamoyl)-2-fluoro-4-methoxyphenoxy)-1-methylcyclohexane-1-carboxylic acid] | 59 nM |  |
| (1R,4R,7Z)-7- (cyclopentyl- methylidene)- N-[4-fluoro-3- (trifluoromethyl) phenyl]-3-[5-(3- hydroxy-3- methylbutyl)-2- methoxybenzamido] bicyclo[2.2.1] heptane-2- carboxamide [Example 268] | 29.6 nM |  |
| (1R,4R,7Z)-7- (cyclopentyl- methylidene)- N-[4-fluoro- 3-(trifluoromethyl) phenyl]-3-[5-(3- hydroxy-3- methylbutyl)-2- methoxybenzamido] bicyclo[2.2.1]heptane- 2-carboxamide [Example 260] | 324 nM |  |
| (1R,4R,7Z)-7-(2- cyclobutylethylidene)- N-[4-fluoro-3- (trifluoromethyl) phenyl]-3-[5-(3- hydroxy-3- methylbutyl)-2- methoxybenzamido] bicyclo[2.2.1] heptane- 2-carboxamide [Example 265] | 66.2 nM |  |
| (1R,4R,7Z)-7-(2- cyclobutylethylidene)- N-[4-fluoro-3- (trifluoromethyl) phenyl]-3-[5-(3- hydroxy-3- methylbutyl)-2- methoxybenzamido] bicyclo[2.2.1]heptane- 2-carboxamide [Example 262] | 197 nM |  |
| (1R,4R,7Z)-7-(2- cyclobutylethylidene)- N-[4-fluoro-3- (trifluoromethyl) phenyl]-3-[5-(3- hydroxypropyl)-2- methoxybenzamido] bicyclo[2.2.1]heptane- 2-carboxamide [Example 261] | 147 nM |  |
| (1R,4R,7Z)-N-14- fluoro-3- (trifluoromethyl) phenyl]-3-[5-(3- hydroxy-3- methylbutyl)-2- methoxybenzamido 1-7-[(oxan-3- yl)methylidene] bicyclo[2.2.1] heptane- 2-carboxamide [Example 266] | 186 nM |  |
| (1R,4R,7Z)-N-[4- fluoro-3- (trifluoromethyl) phenyl]-3-[5-(3- hydroxy-3- methylbutyl)-2- methoxybenzamido 1-7-[(oxolan-3- yl)methylidene] bicyclo[2.2.1] heptane- 2-carboxamide [Example 267] | 246 nM |  |
| (1R,4R,7Z)-N-[4- fluoro-3- (trifluoromethyl) phenyl]-3-[5-(3- hydroxypropyl)-2- methoxybenzamido]- 7-[(oxan-3- yl)methylidene] bicyclo[2.2.1]heptane- 2-carboxamide [Example 263] | 318 nM |  |
| (1R,4R,7Z)-N-[4- fluoro-3- (trifluoromethyl) phenyl]-3-[5-(3- hydroxypropyl)-2- methoxybenzamido]- 7-[(oxolan-3- yl)methylidene] bicyclo[2.2.1] heptane- 2-carboxamide [Example 264] | 459 nM |  |
| (2S,3R,7Z)-7- butylidene-N-[4- fluoro-3- (trifluoromethyl)phe- nyl]-3-[5-(3- hydroxy-3- methylbutyl)-2- methoxybenzamido] bicyclo[2.2.1]heptane- 2-carboxamide [Example 88] | 28 nM |  |
| (7Z)-7-(4,4- dimethylpentylidene)- N-[4-fluoro-3- (trifluoromethyl)phe- nyl]-3-[5-(3- hydroxypropyl)-2- methoxybenzamido] bicyclo[2.2.1]heptane- 2-carboxamide [Example 164] | 67 nM |  |
| Serelaxin: "an intravenous (IV) formulation of the recombinant human relaxin peptide with a relatively short first-phase pharmacokinetic half-life of 0.09 hours" |  | 5.4 min |
